The values that follow come from patent publication US12692241B2, “Substituted triazine compound” (Nico Therapeutics, Inc., priority 2021, dated 2026).

In data set [1] the test system is IL-1β p17 in cerebrospinal fluid. As to the kind of experiment: Rat central nervous system IL-1β production test. The conditions noted are these: male Wistar rats, oral, LPS and BzATP in cisterna magna. In kind it is in vivo. Here is the method:
Rat Central Nervous System IL-1β Production Test
Male Wistar rats of 10-14 weeks old were administered with 12.5 μg/5 μL LPS (SIGMA, L2880) in the cisterna magna under isoflurane anesthesia. Two hours later, a test compound was orally administered. Further one hour later, 50 μg/5 μL BzATP (2′(3′)—O-(4-benzoylbenzoyl)adenosine 5′-triphosphate triethylammonium salt, SIGMA, B6396) was administered in the cisterna magna. Thirty minutes later, the cerebrospinal fluid was collected. The cerebrospinal fluid was subjected to Western blotting using an anti-IL-1β antibody (Millipore, AB1832P) to measure IL-1β p17, and then, the suppression rate thereof relative to the solvent-administered group was calculated.
In the Table, Dose refers to a dosage amount of each test compound, and Ex59, Ex75, Ex131, Ex132 and Ex164 represent Example 59, Example 75, Example 131, Example 132 and Example 164, respectively. It was confirmed that the compounds have inhibitory effects on IL-1β production.

For data set [2], the system named is IL-1β production in THP-1 cells (LPS and ATP; NLRP3 inflammasome activation). As to the kind of experiment: THP-1 IL-1β production inhibitory test. The class given is cell-based, human. The conditions noted are these: PMA-differentiated THP-1 cells, LPS 50 ng/mL and ATP 5 mM, 2 hours, ELISA, read-out: IC50 (nM), IL-1β production. The procedure, abridged: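 THP-1 cells were differentiated with 50 ng/mL PMA for 2 days, then held 15 min at 37 °C. Cells were stimulated with 50 ng/mL LPS plus 5 mM ATP for 2 h, and supernatant IL-1β was measured by ELISA. IC50 came from sigmoidal Emax nonlinear regression.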
Background: An ELISA detects its analyte on a solid surface through an enzyme-linked reagent.

Data set [3] relates to TNF-α production in THP-1 cells (LPS). As to the kind of experiment: TNF-α production inhibitory test. The class given is cell-based. As to conditions: Homo sapiens; PMA-differentiated THP-1 cells, LPS 50 ng/mL, 2 hours, ELISA. As to the method: TNF-α Production Inhibitory Test
To THP-1 cells, 50 ng/mL PMA (phorbol myristate acetate, SIGMA, P1585) was added and then the cells were cultured at 37° C. for 2 days. The culture medium was exchanged with serum-free RPMI-1640 medium, and a compound known in concentration was added. The cells were cultured at 37° C. for 15 minutes. LPS (lipopolysaccharide, SIMGA, L2880) was added such that the final concentrations of them became 50 ng/mL. The cells were cultured at 37° C. for 2 hours. The supernatant was collected and the concentration of TNF-α was measured by ELISA (DuoSet ELISA human TNF-α, R&D Systems, DY201). The concentration of TNF-α was plotted against the logarithm of the concentration of the test compound, and the IC50 value was calculated by sigmoidal Emax model nonlinear regression analysis.

A further data set has as its system 3T3 NRU phototoxicity. As to the kind of experiment: In vitro phototoxicity test (3T3 NRU). As to conditions: ICH S10 / OECD 432 in vitro 3T3 NRU phototoxicity test. In kind it is cell-based. The source says: In Vitro Phototoxicity Test
The evaluation of in vitro phototoxicity tests was based on ICH S10: Guidelines for Evaluation of Phototoxicity of Drugs (Notification No. 0521-1) and OECD guideline for testing of chemicals 432: In vitro 3T3 NRU phototoxicity test, 2004, which was described in the OECD report.

The target of data set [4] is human Ether-a-go-go Related Gene (hERG) channel (Homo sapiens, UniProt Q12809). As to the kind of experiment: Safety pharmacological test: hERG channel inhibitory effect. The class given is biochemical. As to the method: Safety Pharmacological Test
As a safety pharmacological test, the human Ether-a-go-go Related Gene (hereinafter referred to as hERG) channel inhibitory effect was evaluated. The hERG channel inhibitory effect was evaluated using a modified method described in Combinatorial Chemistry & High Throughput Screening, 12, 1, 78-95 (2009).
In general terms: Block of hERG is tested as a sign of cardiac risk.

pIC50: −log10 of the molar value. Read-outs that look alike come from different tables or passages of the source.

Chain of human Ether-a-go-go Related Gene (hERG) channel (Q12809 whole entry): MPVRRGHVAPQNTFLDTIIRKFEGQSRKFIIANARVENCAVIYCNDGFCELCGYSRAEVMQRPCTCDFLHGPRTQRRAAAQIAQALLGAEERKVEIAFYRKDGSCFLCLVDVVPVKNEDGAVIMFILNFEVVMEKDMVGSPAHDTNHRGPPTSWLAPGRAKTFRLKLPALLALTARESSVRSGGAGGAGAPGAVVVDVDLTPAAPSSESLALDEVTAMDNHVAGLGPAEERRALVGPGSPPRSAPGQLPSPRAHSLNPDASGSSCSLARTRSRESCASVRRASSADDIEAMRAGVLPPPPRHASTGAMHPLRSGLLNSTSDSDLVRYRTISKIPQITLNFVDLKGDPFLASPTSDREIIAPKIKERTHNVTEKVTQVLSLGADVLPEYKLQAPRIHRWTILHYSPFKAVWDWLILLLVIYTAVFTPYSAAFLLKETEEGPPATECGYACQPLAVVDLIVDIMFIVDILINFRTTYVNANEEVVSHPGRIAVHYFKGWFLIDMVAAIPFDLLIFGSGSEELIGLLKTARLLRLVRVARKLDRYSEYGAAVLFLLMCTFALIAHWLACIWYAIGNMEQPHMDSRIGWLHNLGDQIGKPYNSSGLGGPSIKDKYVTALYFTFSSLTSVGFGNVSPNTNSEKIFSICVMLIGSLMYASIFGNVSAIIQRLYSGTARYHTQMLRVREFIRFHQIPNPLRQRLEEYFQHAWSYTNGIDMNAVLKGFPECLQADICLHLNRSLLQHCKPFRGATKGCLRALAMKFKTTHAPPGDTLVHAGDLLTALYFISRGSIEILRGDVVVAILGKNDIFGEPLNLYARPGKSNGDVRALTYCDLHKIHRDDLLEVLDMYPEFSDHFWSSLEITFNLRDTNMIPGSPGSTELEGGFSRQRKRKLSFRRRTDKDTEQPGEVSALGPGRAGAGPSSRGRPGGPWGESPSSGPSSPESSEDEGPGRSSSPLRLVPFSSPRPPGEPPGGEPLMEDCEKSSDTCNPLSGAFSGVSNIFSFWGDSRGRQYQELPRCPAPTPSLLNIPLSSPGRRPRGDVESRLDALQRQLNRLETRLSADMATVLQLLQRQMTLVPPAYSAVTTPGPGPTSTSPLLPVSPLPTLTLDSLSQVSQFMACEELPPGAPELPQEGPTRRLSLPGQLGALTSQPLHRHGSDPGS

With `COc1ccc(-c2nnc(N[C@@H]3CCCC[C@H]3O)nc2C)c(O)c1` [Ex59], the results for the “suppression rate of IL-1β p17 relative to the solvent-administered group” value in data set [1] (Dose 0.3 mg/kg), in data set [1] (Dose 1 mg/kg) and in data set [1] (Dose 3 mg/kg) were 45%, 54% and 85%, respectively.

Turning to `Cc1nc(N[C@@H]2CCC[C@H](O)C2)nnc1-c1ccc(C(F)(F)F)cc1O` [Ex75], the “suppression rate of IL-1β p17 relative to the solvent-administered group” value is 12% in data set [1] (Dose 0.3 mg/kg), 73% in data set [1] (Dose 1 mg/kg) and 100% in data set [1] (Dose 3 mg/kg).

As for `Cc1nc(N[C@@H]2CCCC[C@H]2O)nnc1-c1ccc(OC(F)F)cc1O` [Ex131], the “suppression rate of IL-1β p17 relative to the solvent-administered group” value in data set [1] (Dose 0.3 mg/kg) was −33%; in data set [1] (Dose 1 mg/kg), −54%; in data set [1] (Dose 3 mg/kg) it was 61%.

Turning to `Cc1nc(N[C@@H]2CCCC[C@H]2N)nnc1-c1ccc(C(F)(F)F)cc1O` [Ex132], the “suppression rate of IL-1β p17 relative to the solvent-administered group” value is on record as −3.7%^ in data set [1] (Dose 0.3 mg/kg), 88% in data set [1] (Dose 1 mg/kg) and 88% in data set [1] (Dose 3 mg/kg).

With `Cc1nc(N[C@@H]2CCCN(C)C2)nnc1-c1ccc(C(F)(F)F)cc1O` [Ex164], the results for the “suppression rate of IL-1β p17 relative to the solvent-administered group” value in data set [1] (Dose 0.3 mg/kg), in data set [1] (Dose 1 mg/kg) and in data set [1] (Dose 3 mg/kg) were 67%, 81% and 80%, respectively.

Take `Cc1nc(N[C@@H]2CCCC[C@H]2O)nnc1-c1ccc(OC(F)(F)F)cc1O` [Example 27, 2-(3-{[(1R,2R)-2-hydroxycyclohexyl]amino}-5-methyl-1,2,4-triazin-6-yl)-5-(trifluoromethoxy)phenol]: in data set [2] (Homo sapiens, THP-1, 2 h), the IC50 (commonly the midpoint of a concentration-inhibition curve) came out at 10 nM. Further, the pIC50 – broadly, −log10 of the IC50, conventionally taken in molar units – in data set [3] was at most 5.00.

As for `Cc1nc(N[C@@H]2CCOC[C@H]2O)nnc1-c1ccc(Cl)cc1O` [Example 31, (3S,4R)-4-{[6-(4-chloro-2-hydroxyphenyl)-5-methyl-1,2,4-triazin-3-yl]amino}oxan-3-ol], the IC50 in data set [2] (Homo sapiens, THP-1, 2 h) came out at 25 nM. This molecule also gave a pIC50 in data set [3] of at most 5.00.

`COc1ccc(-c2nnc(N[C@@H]3CCCC[C@H]3O)nc2C)c(O)c1` [Example 59, 2-(3-{[(1R,2R)-2-hydroxycyclohexyl]amino}-5-methyl-1,2,4-triazin-6-yl)-5-methoxyphenol]: the IC50 in data set [2] (Homo sapiens, THP-1, 2 h) came to 14 nM. In addition, the pIC50 in data set [3] and in data set [4] was at most 5.00 throughout. The phototoxic effect result in the data set on 3T3 NRU phototoxicity is listed as “no phototoxic effect”.

For `Cc1nc(N[C@@H]2CCCN(C3CC3)C2)nnc1-c1ccc(C(F)(F)F)cc1O` [Example 73, 2-(3-{[(3R)-1-cyclopropylpiperidin-3-yl]amino}-5-methyl-1,2,4-triazin-6-yl)-5-(trifluoromethyl)phenol], in data set [2] (Homo sapiens, THP-1, 2 h), the IC50 is 1.3 nM. Moreover, in data set [3], the pIC50 was at most 5.00.

`Cc1nc(N[C@@H]2CCC[C@H](O)C2)nnc1-c1ccc(C(F)(F)F)cc1O` [Example 75, 2-(3-{[(1R,3S)-3-hydroxycyclohexyl]amino}-5-methyl-1,2,4-triazin-6-yl)-5-(trifluoromethyl)phenol]: in data set [2] (Homo sapiens, THP-1, 2 h), the IC50 came to 6.5 nM. Also, the pIC50 in data set [3] and in data set [4] was at most 5.00 in each case. Further, the phototoxic effect entry in the data set with 3T3 NRU phototoxicity is “no phototoxic effect”.

As to `CC1(O)CC(Nc2nnc(-c3ccc(C(F)(F)F)cc3O)c(C3CC3)n2)C1` (centres unmarked) [Example 108, 2-(5-cyclopropyl-3-{[(1s,3s)-3-hydroxy-3-methylcyclobutyl]amino}-1,2,4-triazin-6-yl)-5-(trifluoromethyl)phenol], in data set [2] (Homo sapiens, THP-1, 2 h), the IC50 stood at 21 nM. In addition, in data set [3], the pIC50 was at most 5.00.

Take `Cc1nc(N[C@@H]2CCCC[C@H]2O)nnc1-c1ccc(OC(F)F)cc1O` [Example 131, 5-(difluoromethoxy)-2-(3-{[(1R,2R)-2-hydroxycyclohexyl]amino}-5-methyl-1,2,4-triazin-6-yl)phenol]: in data set [2] (Homo sapiens, THP-1, 2 h), the IC50 came out at 9.5 nM. In addition, the pIC50 in data set [3] and in data set [4] was at most 5.00 throughout. For the same molecule, the phototoxic effect entry with 3T3 NRU phototoxicity is reported as “no phototoxic effect”.

As to `Cc1nc(N[C@@H]2CCCC[C@H]2N)nnc1-c1ccc(C(F)(F)F)cc1O` [Example 132, 2-(3-{[(1R,2R)-2-aminocyclohexyl]amino}-5-methyl-1,2,4-triazin-6-yl)-5-(trifluoromethyl)phenol], in data set [2] (Homo sapiens, THP-1, 2 h), the IC50 stood at 15 nM. Moreover, the pIC50 in data set [3] and in data set [4] was at most 5.00 in each case. For the same molecule, the phototoxic effect result in the data set on 3T3 NRU phototoxicity is “no phototoxic effect”.

As for `Cc1nc(NC[C@H]2CNCCO2)nnc1-c1ccc(C(F)(F)F)cc1O` [Example 141, 2-[5-methyl-3-({[(2R)-morpholin-2-yl]methyl}amino)-1,2,4-triazin-6-yl]-5-(trifluoromethyl)phenol], the IC50 in data set [2] (Homo sapiens, THP-1, 2 h) turned out to be 470 nM. In data set [3], the pIC50 is at most 5.00.

Take `Cc1nc(N[C@@H]2CCCN(C)C2)nnc1-c1ccc(C(F)(F)F)cc1O` [Example 164]: the IC50 in data set [2] was 1.5 nM. In addition, the pIC50 in data set [3] and in data set [4] was at most 5.00 throughout. The phototoxic effect result in the data set with 3T3 NRU phototoxicity is given as “no phototoxic effect”.

For the molecule `Cc1nc(N[C@@H]2CCCN(C)C2)nnc1-c1ccc(OC(F)F)cc1O` [Example 174, 5-(difluoromethoxy)-2-(5-methyl-3-{[(3R)-1-methylpiperidin-3-yl]amino}-1,2,4-triazin-6-yl)phenol], in data set [2] (Homo sapiens, THP-1, 2 h), the IC50 came out at 1.1 nM. Further, the pIC50 in data set [3] is at most 5.00.
